Results published in PMC8303947, “Evaluation of Ruthenium(II) N-Heterocyclic Carbene Complexes as Antibacterial Agents and Inhibitors of Bacterial Thioredoxin Reductase” (Molecules, 2021).
≈ marks a conversion by molar mass, not a printed value. Read-outs that look alike come from different tables or passages of the source.

Experiments:
E. coli DSM 30083 = test: Antimicrobial microtiter plate MIC assay, E. coli; assay type: cell-based, Escherichia coli; settings: Mueller Hinton broth, 16–18 h at 37 °C
Method: (§1) The fungus Candida albicans was used as a non-bacterial reference organism. The broad-spectrum antibiotic Ciprofloxacin was used as a reference drug.
(§2) Compounds were tested in a microtiter plate assay according to CLSI guidelines against E. coli DSM 30083, A. baumannii DSM 30007, P. aeruginosa DSM 50071, B. subtilis DSM 402, S. aureus DSM 20231, S. aureus ATCC 43300 (MRSA), and C. albicans, as described previously. E. coli, A. baumannii, S. aureus, and B. subtilis were grown in Mueller Hinton broth, P. aeruginosa in cation-adjusted Mueller Hinton II, and C. albicans DSM1386 in Sabouraud broth. Compounds were dissolved in DMSO at 10 mg/mL. Starting from a 10 mg/mL stock solution, serial dilutions in culture media were prepared with the Tecan Freedom Evo 75 liquid handling workstation (Tecan, Männedorf, Switzerland), covering a range from 512 to 0.5 µg/mL. Assay volumes were 200 µL per well. After inoculating with 5 × 10^5 bacteria/mL from late exponential cultures grown in the same media, cultures were incubated for 16–18 h at 37 °C. The lowest compound concentration inhibiting visible bacterial growth was recorded as MIC.

S. aureus DSM 20231 = test: Antimicrobial microtiter plate MIC assay, S. aureus DSM 20231; assay type: cell-based, Staphylococcus aureus; settings: Mueller Hinton broth, 16–18 h at 37 °C
Method: as §1, §2

[1] = tested on: S. aureus ATCC 43300 (MRSA); test: Antimicrobial microtiter plate MIC assay, S. aureus ATCC 43300 (MRSA); assay type: cell-based, Staphylococcus aureus; settings: Gram-positive, Mueller Hinton broth, 16–18 h at 37 °C
Method: as §1, §2

C. albicans DSM 1386 = test: Antimicrobial microtiter plate MIC assay, C. albicans; assay type: cell-based, Candida albicans; settings: Sabouraud broth
Method: as §1
E. coli, A. baumannii, S. aureus, and B. subtilis were grown in Mueller Hinton broth, P. aeruginosa in cation-adjusted Mueller Hinton II, and C. albicans DSM1386 in Sabouraud broth. Compounds were dissolved in DMSO at 10 mg/mL. […] Assay volumes were 200 µL per well. After inoculating with 5 × 10^5 bacteria/mL from late exponential cultures grown in the same media, cultures were incubated for 16–18 h at 37 °C. The lowest compound concentration inhibiting visible bacterial growth was recorded as MIC.

P. aeruginosa DSM 50071 = test: Antimicrobial microtiter plate MIC assay, P. aeruginosa; assay type: cell-based, Pseudomonas aeruginosa; settings: cation-adjusted Mueller Hinton II, 16–18 h at 37 °C
Method: as §1, §2

B. subtilis 168 = test: Antimicrobial microtiter plate MIC assay, B. subtilis; assay type: cell-based, Bacillus subtilis; settings: Gram-positive, B. subtilis 168 (DSM 402), Mueller Hinton broth, 16–18 h at 37 °C
Method: as §1, §2

A. baumannii DSM 30007 = test: Antimicrobial microtiter plate MIC assay, A. baumannii; assay type: cell-based, Acinetobacter baumannii; settings: Mueller Hinton broth, 16–18 h at 37 °C
Method: as §1, §2

E. coli TrxR = biological target: T1, E. coli TrxR (Escherichia coli, UniProt P0A9P4); test: Inhibition of bacterial TrxR (E. coli), 5,5-dithiobis-(2-nitrobenzoic acid) reduction assay; assay type: biochemical
T1 construct: purchased Merck (Darmstadt, Germany)
T1 sequence (P0A9P4 whole entry): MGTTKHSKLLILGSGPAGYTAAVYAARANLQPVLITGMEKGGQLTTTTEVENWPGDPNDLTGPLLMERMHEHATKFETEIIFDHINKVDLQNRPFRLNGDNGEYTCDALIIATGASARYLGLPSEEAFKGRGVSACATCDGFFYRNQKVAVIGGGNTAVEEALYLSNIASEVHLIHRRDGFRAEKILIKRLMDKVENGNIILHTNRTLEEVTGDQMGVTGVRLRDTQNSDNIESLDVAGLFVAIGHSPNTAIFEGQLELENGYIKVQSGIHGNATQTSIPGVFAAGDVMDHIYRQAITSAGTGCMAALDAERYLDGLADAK
Method: The inhibition of TrxR has been considered as a novel mode of action for antibiotics and in our previous report, the relevance for gold NHC complexes had been shown.
The TrxR (E. coli) inhibition assay was performed according to a previously published procedure. It is partly based on the procedure developed by Lu et al. and detects the formation of 5-TNB (5-thionitrobenzoic acid). Solutions of E. coli TrxR (35.4 U/mL) and of its substrate thioredoxin (Trx) E. coli (156 µg/mL) (both purchased from Merck (Darmstadt, Germany) and diluted with distilled water) and fresh stock solutions of the test compounds (in DMF) were prepared. TE buffer (Tris-HCl 50 mM, EDTA 1 mM, pH 7.5) containing graded concentrations of the respective compounds (20 µL) or buffer without compounds (20 µL, as control) were mixed with TrxR solution (10 µL), Trx solution (10 µL), and a solution of NADPH (200 µM) in TE buffer (100 µL) in a well on a 96-well plate. As blank solution, 200 µM NADPH in TE buffer (100 µL) mixed with a DMF/buffer mixture (40 µL) was used (final concentrations of DMF: 0.5% v/v). The solutions on the 96-well plates were incubated for 75 min at 25 °C with moderate shaking. […] The highest test compound concentration was used and the enzyme solution was replaced by TE buffer for this purpose.

[2] = Escherichia coli, DSM30083, Gram-negative
[3] = purified E. coli TrxR, DTNB reduction, 75 min preincubation at 25 °C, mean (±SD) of three experiments, read-out: IC50 inhibition of E. coli TrxR
[4] = Staphylococcus aureus, DSM20231, Gram-positive
[5] = Candida albicans, DSM1386, fungus
[6] = Pseudomonas aeruginosa, DSM50071, Gram-negative
[7] = Acinetobacter baumannii, DSM30007, Gram-negative

Compound | MIC (E. coli DSM 30083; Gram-negative) [µM] | MIC (S. aureus DSM 20231; Gram-positive) [µM] | MIC [1] [µM] | MIC (C. albicans DSM 1386; fungus) [µM] | MIC (P. aeruginosa DSM 50071; Gram-negative) [µM] | MIC (B. subtilis 168) [µM] | MIC (A. baumannii DSM 30007; Gram-negative) [µM] | MIC (E. coli DSM 30083; [2]) [µM] | IC50 (E. coli TrxR; [3]) [µM] | MIC (S. aureus DSM 20231; [4]) [µM] | MIC ([1]; Staphylococcus aureus) [µM] | MIC (C. albicans DSM 1386; [5]) [µM] | MIC (P. aeruginosa DSM 50071; [6]) [µM] | MIC (B. subtilis 168; Bacillus subtilis, DSM402) [µM] | MIC (A. baumannii DSM 30007; [7]) [µM] | IC50 (E. coli TrxR) [µM]
1,3-Dibenzyl-5-chloro-1H-benzimidazolium bromide [2e] | 1242.6 | 77.7 | 77.7 | 1242.6 | 1242.6 | 155.3 | 1242.6 | – | – | – | – | – | – | – | – | –
1,3-Dibenzyl-5-fluoro-1H-benzimidazolium bromide [2d] | 1288.7 | 161.1 | 161.1 | >1288.7 | >1288.7 | 322.2 | >1288.7 | – | – | – | – | – | – | – | – | –
1,3-Dibenzyl-5-methoxy-1H-benzimidazolium bromide [2c] | 1250.8 | 19.5 | 19.5 | 1250.8 | 1250.8 | 78.2 | 1250.8 | – | – | – | – | – | – | – | – | –
c1ccc(Cn2c[n+](Cc3ccccc3)c3ccccc32)cc1 [2a] | – | – | – | – | – | – | – | 1350 | > 100 | 42.2 | 42.2 | 1350 | 1350 | 169 | 1350 | –
Cc1ccc2c(c1)n(Cc1ccccc1)c[n+]2Cc1ccccc1 [2b, 1,3-Dibenzyl-5-methyl-1H-benzimidazolium bromide] | – | – | – | – | – | – | – | 1300 | – | 81.4 | 163 | 1300 | 1300 | 651 | 1300 | > 100
Brc1ccc2c(c1)n(Cc1ccccc1)c[n+]2Cc1ccccc1 [2f, 1,3-Dibenzyl-5-bromo-1H-benzimidazolium bromide] | – | – | – | – | – | – | – | > 1120 | – | 140 | 69.8 | > 1120 | > 1120 | 279 | > 1120 | > 100
Cc1ccc(C(C)C)cc1.Cc1ccc2c(c1)n(Cc1ccccc1)[c](=[Ru]([Cl])[Cl])n2Cc1ccccc1 [3b, (1,3-Dibenzyl-5-methyl-1H-benzimidazol-2-ylidene)-dichlorido-(η^6-p-cymene)ruthenium(II)] | 827.7 | 25.9 | 25.9 | >827.7 | 413.8 | 25.9 | 413.8 | – | 14 | – | – | – | – | – | – | –
COc1ccc2c(c1)n(Cc1ccccc1)[c](=[Ru]([Cl])[Cl])n2Cc1ccccc1.Cc1ccc(C(C)C)cc1 [3c, (1,3-Dibenzyl-5-methoxy-1H-benzimidazol-2-ylidene)-dichlorido-(η^6-p-cymene)ruthenium(II)] | >806.8 | 25.2 | 25.2 | >806.8 | >806.8 | 25.2 | >806.8 | – | – | – | – | – | – | – | – | –
Cc1ccc(C(C)C)cc1.Fc1ccc2c(c1)n(Cc1ccccc1)[c](=[Ru]([Cl])[Cl])n2Cc1ccccc1 [3d, (1,3-Dibenzyl-5-fluoro-1H-benzimidazol-2-ylidene)-dichlorido-(η^6-p-cymene)ruthenium(II)] | 822.4 | 25.7 | 25.7 | >822.4 | >822.4 | 25.7 | 205.6 | – | – | – | – | – | – | – | – | –
Cc1ccc(C(C)C)cc1.Clc1ccc2c(c1)n(Cc1ccccc1)[c](=[Ru]([Cl])[Cl])n2Cc1ccccc1 [3e, (1,3-Dibenzyl-5-chloro-1H-benzimidazol-2-ylidene)-dichlorido-(η^6-p-cymene)ruthenium(II)] | 401.2 | 25.1 | 12.5 | >802.4 | >802.4 | 25.1 | >802.4 | – | – | – | – | – | – | – | – | –
Cc1ccc(C(C)C)cc1.[Cl][Ru]([Cl])=[c]1n(Cc2ccccc2)c2ccc(Br)cc2n1Cc1ccccc1 [3f, (1,3-Dibenzyl-5-bromo-1H-benzimidazol-2-ylidene)-dichlorido-(η^6-p-cymene)ruthenium(II)] | 374.6 | 23.4 | 11.7 | >749.1 | >749.1 | 11.7 | >749.1 | – | > 100 | – | – | – | – | – | – | –
O=C(O)c1cn(C2CC2)c2cc(N3CCNCC3)c(F)cc2c1=O [Ciprofloxacin, reference compound] | – | – | – | – | – | – | – | 1.5 (≈ 0.497 µg/mL) | – | 12 (≈ 3.98 µg/mL) | 12 (≈ 3.98 µg/mL) | – | 1.2 (≈ 0.398 µg/mL) | 24 (≈ 7.95 µg/mL) | 24 (≈ 7.95 µg/mL) | –
